The results in this text go back to ChEMBL document CHEMBL3045746, “Efficacy of Lawsonia inermis leaves extract and its phenolic compounds against olive knot and crown gall diseases” (2013).

The structures appear in SMILES notation. Converted amounts (≈) assume the structure as drawn.

This experiment relates to Agrobacterium tumefaciens. Kind of experiment: Antibacterial activity against Agrobacterium tumefaciens str. B6 assessed as growth inhibition after 48 hr by INT staining. The format is functional. To be noted: str. B6, 48 h.

The term MIC denotes the least concentration at which growth counts as inhibited. On to `CC(=O)c1c(O)cc(O)c(O)c1O[C@@H]1O[C@H](CO)[C@@H](O)[C@H](O)[C@H]1O` [LALIOSIDE], for which the MIC turned out to be 30 µg/mL (≈ 86.6 µM).
